{"source": "patent US8741602B2", "about": "“Method for producing glucuronic acid conjugate using Saccharomyces cerevisiae” (Toyama Prefecture, priority 2010, dated 2014)", "key": {"UGT1A6": {"molecular_target": "T1, UGT1A6 (Homo sapiens, UniProt P19224)", "T1 sequence (P19224 27-532)": "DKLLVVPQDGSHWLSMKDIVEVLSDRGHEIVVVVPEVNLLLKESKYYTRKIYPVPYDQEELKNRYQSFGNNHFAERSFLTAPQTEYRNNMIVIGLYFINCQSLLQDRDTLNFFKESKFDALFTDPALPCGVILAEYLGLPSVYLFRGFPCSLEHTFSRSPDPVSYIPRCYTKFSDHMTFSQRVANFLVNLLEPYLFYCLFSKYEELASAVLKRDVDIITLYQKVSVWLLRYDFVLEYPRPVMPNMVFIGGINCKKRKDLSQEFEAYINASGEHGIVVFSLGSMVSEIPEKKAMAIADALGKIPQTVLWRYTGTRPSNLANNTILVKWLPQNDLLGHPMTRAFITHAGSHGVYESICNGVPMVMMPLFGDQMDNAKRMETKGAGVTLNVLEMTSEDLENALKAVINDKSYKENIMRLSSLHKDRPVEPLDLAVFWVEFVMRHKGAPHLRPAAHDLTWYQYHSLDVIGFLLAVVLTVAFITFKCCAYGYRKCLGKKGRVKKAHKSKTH", "experiment": "Glucuronide production in resting S. cerevisiae AH22 cells co-expressing UDPGDH and UGT1A6", "assay_type": "cell-based", "set-up": "expressed in transfected cells; host or cells: Saccharomyces cerevisiae AH22", "description": "(§1) Each phase was analyzed by UPLC system.\nTime course of conversion in the transformant with the highest activity of glucuronidation (AH22: pAUR/At.UDPGDH+pGYR/hUGT1A6) was examined (FIG. 6).\nGlucose concentration dependence of conversion in the transformant with the highest activity of glucuronidation (AH22: pAUR/At.UDPGDH+pGYR/hUGT1A6) was examined (FIG. 7)."}, "hUGT1A8": {"molecular_target": "T2, hUGT1A8 (Homo sapiens, UniProt Q9HAW9)", "T2 construct": "expressed in transfected cells; host or cells: Saccharomyces cerevisiae AH22", "T2 sequence (Q9HAW9 26-530)": "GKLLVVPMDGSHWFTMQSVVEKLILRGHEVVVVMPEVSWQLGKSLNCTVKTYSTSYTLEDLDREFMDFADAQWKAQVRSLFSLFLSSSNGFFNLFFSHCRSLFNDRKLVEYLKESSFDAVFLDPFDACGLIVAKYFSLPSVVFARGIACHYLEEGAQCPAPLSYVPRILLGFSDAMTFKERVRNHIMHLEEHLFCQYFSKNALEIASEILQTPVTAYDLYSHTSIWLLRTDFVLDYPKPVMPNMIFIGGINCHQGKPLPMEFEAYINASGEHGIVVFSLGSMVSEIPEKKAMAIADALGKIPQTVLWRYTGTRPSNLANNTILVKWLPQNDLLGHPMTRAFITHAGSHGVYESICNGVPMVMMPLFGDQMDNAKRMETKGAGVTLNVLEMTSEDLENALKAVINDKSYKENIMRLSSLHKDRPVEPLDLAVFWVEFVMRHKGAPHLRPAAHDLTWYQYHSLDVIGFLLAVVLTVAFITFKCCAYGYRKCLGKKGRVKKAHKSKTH", "experiment": "Glucuronide production in resting S. cerevisiae AH22 cells co-expressing UDPGDH and UGT1A8", "assay_type": "cell-based", "description": "as §1"}, "hUGT1A7": {"molecular_target": "T3, hUGT1A7 (Homo sapiens, UniProt Q9HAW7)", "T3 construct": "expressed in transfected cells; host or cells: Saccharomyces cerevisiae AH22", "T3 sequence (Q9HAW7 26-530)": "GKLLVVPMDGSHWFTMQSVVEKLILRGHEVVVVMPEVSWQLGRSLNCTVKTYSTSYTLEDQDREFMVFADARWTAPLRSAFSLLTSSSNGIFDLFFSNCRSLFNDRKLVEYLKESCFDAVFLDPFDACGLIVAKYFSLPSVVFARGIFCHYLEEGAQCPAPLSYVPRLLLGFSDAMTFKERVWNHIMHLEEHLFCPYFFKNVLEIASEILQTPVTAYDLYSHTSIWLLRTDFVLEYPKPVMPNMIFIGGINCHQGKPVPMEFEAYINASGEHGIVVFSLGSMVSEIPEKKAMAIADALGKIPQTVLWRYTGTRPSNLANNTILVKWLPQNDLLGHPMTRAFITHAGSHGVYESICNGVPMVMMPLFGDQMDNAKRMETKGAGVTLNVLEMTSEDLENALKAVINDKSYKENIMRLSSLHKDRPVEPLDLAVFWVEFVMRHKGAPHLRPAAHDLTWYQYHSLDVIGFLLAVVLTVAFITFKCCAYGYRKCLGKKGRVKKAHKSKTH", "experiment": "Glucuronide production in resting S. cerevisiae AH22 cells co-expressing UDPGDH and UGT1A7", "assay_type": "cell-based", "conditions": "UGT1A7 with At.UDPGDH; 7-hydroxycoumarine substrate, 30° C., 24 hrs", "description": "as §1"}, "hUGT1A1 [1]": {"molecular_target": "T4, hUGT1A1 (Homo sapiens, UniProt P22309)", "T4 sequence (P22309 28-533)": "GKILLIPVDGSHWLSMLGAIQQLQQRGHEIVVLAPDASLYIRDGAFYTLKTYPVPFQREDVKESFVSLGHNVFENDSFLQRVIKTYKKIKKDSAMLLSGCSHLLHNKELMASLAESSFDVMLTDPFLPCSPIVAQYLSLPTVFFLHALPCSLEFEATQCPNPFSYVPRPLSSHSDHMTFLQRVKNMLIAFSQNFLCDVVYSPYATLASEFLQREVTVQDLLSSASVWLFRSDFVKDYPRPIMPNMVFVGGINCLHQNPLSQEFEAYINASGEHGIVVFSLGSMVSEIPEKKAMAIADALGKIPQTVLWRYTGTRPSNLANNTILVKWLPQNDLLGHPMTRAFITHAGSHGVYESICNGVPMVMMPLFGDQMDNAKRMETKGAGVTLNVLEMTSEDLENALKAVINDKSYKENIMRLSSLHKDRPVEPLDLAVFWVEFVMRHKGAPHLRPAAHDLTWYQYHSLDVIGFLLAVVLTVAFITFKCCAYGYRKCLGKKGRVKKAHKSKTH", "experiment": "Glucuronide production in resting S. cerevisiae AH22 cells co-expressing UDPGDH and UGT1A1", "conditions": "UGT1A1 with At.UDPGDH; 7-hydroxycoumarine substrate, 30° C., 24 hrs", "quoted_text": "(§2) To confirm the production of 7-hydroxycoumarine glucuronide in the resting yeast cells containing UDPGDH and UGT, transformants were cultivated in selection medium at 30° C., 48 hrs, and the resultant yeast cells were suspended with appropriate buffer solution containing 0.1-1 mM 7-hydroxycoumarine and 1-8% (w/v) glucose. After incubation at 30° C., 24 hrs, 2-fold volume of chloroform:methanol (3:1, v/v) was added to reaction medium containing yeast cells. Centrifugation of extracts was separated to upper water and lower organic phase. Lower organic phase were evaporated and redissolved in 200 μl acetonitrile. Each phase was analyzed by UPLC system. Condition of analysis are described below; column: Cosmosil 2.5C18-MS-II (2.0 mm×100 mm, nacalai tesque), flow rate 0.5 ml/min, detection 320 nm, temperature 45° C. Condition of gradient elution: water-acetonitrile with 0.5% (v/v) trifluoroacetic acid, 10% (v/v) acetonitrile (4 min), 10-70% acetonitrile (6 min), 70-10% acetonitrile (2 min), 10% acetonitrile (4 min).\n(§3) To confirm the production of quercetin glucuronide in the resting yeast cells containing UDPGDH and UGT (pAUR/At.UDPGDH+pGYR/hUGT1A1), transformants were cultivated in selection medium at 30° C., 48 hrs, and the resultant yeast cells were suspended with 0.1 M potassium phosphate buffer (pH 7.4) containing 0.2 mM quercetin and 8% (w/v) glucose. After incubation at 30° C., 24 hrs, 2-fold volume of chloroform:methanol (3:1, v/v) was added to reaction medium containing yeast cells. Centrifugation of extracts was separated to upper water and lower organic phase. Lower organic phase were evaporated and redissolved in 200 μl acetonitrile. Quercetin glucuronides in yeast cells was isolated and detected by WAKOPAK™ Navi C30-5 (3 mm×150 mm, Wako Chemical)-column-HPLC system with followed condition; flow rate; 0.4 ml/min, detection; 370 nm, temperature 37° C. Condition of gradient elution: water-acetonitrile with 0.5% (v/v) phosphoric acid, 18% (v/v) acetonitrile (10 min), 18-55% acetonitrile (10 min), 55% acetonitrile (5 min).\n(§4) To compare the production ability of glucuronide in budding (Saccharomyces cerevisiae) and fission yeast (Schizosaccharomyces pombe) containing UDPGDH and UGT, several transformants (No. 4 in Table 2 and transformant with N-terminal modified UGT1A1) were selected for the assay. These transformants were cultivated in selection medium at 30° C., 48 hrs, and the resultant yeast cells were suspended with appropriate buffer solution containing 0.5 mM 4-methylumberrferone and 8% (w/v) glucose. After incubation at 30° C., 24 hrs, 2-fold volume of chloroform:methanol (3:1, v/v) was added to reaction medium containing yeast cells. Centrifugation of extracts was separated to upper water and lower organic phase. Lower organic phase were evaporated and redissolved in 200 μl acetonitrile. Each phase was analyzed by UPLC system.\n(§5) Condition of analysis are described below; column: COSMOSIL™ 2.5C18-MS-II (2.0 mm×100 mm, Nacalai Tesque), flow rate 0.5 ml/min, detection 320 nm, temperature 45° C. Condition of gradient elution: water-acetonitrile with 0.1% (v/v) trifluoroacetic acid, 10% acetonitrile (4 min), 10-70% acetonitrile (6 min), 70-10% acetonitrile (2 min), 10% acetonitrile (3 min)."}, "hUGT1A9": {"molecular_target": "T5, hUGT1A9 (Homo sapiens, UniProt O60656)", "T5 construct": "expressed in transfected cells; host or cells: Saccharomyces cerevisiae AH22", "T5 sequence (O60656 26-530)": "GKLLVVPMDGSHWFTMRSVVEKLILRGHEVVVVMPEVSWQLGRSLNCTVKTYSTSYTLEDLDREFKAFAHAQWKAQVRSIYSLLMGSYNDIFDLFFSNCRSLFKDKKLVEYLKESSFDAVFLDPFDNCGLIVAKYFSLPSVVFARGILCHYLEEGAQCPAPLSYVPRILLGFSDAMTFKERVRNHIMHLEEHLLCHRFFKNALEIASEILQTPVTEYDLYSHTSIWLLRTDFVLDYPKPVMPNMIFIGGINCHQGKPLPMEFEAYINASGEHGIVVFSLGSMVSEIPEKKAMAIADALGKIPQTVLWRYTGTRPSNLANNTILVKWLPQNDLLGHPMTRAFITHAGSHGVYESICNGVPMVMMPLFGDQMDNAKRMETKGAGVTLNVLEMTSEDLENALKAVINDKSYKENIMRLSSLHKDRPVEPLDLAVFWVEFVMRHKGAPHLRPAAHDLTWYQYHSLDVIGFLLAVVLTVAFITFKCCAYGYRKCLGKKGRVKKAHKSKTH", "experiment": "Glucuronide production in resting S. cerevisiae AH22 cells co-expressing UDPGDH and UGT1A9", "assay_type": "cell-based", "description": "as §1"}, "[2]": {"molecular_target": "T6, rat UDP-glucose dehydrogenase (Rattus norvegicus, UniProt O70199)", "T6 construct": "confirmed the gene product from GenBank Acc; ID NO: 9; expressed in transfected cells; host or cells: Saccharomyces cerevisiae AH22", "T6 sequence (O70199 1-493)": "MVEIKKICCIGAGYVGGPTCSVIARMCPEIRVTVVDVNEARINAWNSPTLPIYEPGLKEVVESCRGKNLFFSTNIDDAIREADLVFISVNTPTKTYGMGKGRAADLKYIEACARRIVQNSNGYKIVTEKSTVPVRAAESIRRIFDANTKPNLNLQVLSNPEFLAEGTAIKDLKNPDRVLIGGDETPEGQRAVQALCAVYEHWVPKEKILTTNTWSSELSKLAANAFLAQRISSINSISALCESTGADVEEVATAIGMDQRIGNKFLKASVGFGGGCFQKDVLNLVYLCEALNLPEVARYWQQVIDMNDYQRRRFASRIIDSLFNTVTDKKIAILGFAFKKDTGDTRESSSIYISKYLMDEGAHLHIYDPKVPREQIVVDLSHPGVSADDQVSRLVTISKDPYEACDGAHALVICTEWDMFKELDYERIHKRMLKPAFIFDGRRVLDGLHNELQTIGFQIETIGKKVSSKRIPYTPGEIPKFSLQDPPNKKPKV", "experiment": "Production of UDP-glucuronic acid in yeast cells transformed with rat UDP-glucose dehydrogenase gene", "assay_type": "cell-based", "conditions": "estimation of sugar nucleotide, FIG. 4 line C", "text": "Upper water phase of extracts were separated by centrifugation."}, "hUGT1A1 [3]": {"molecular_target": "T4, hUGT1A1", "conditions": "24 h, 0.2 mM, pH 7.4", "quoted_text": "as §2, §3, §4, §5"}, "UGT1A10": {"molecular_target": "T7, UGT1A10 (Homo sapiens, UniProt Q9HAW8)", "T7 construct": "expressed in transfected cells; host or cells: Saccharomyces cerevisiae AH22", "T7 sequence (Q9HAW8 26-530)": "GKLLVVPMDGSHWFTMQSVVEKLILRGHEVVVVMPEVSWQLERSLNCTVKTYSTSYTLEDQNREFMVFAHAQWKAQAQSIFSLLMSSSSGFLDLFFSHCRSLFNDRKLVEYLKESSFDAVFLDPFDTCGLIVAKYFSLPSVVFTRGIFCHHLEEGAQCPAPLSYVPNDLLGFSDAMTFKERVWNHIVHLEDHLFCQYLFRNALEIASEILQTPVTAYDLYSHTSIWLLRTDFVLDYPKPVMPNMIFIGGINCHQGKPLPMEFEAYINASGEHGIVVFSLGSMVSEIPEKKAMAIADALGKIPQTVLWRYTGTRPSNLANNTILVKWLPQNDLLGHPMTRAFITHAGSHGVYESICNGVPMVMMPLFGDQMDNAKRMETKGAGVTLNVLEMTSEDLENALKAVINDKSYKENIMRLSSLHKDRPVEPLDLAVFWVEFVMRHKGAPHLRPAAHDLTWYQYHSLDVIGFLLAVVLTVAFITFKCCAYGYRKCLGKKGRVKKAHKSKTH", "experiment": "Acyl glucuronide production in resting S. cerevisiae cells co-expressing UDPGDH and UGT1A10", "assay_type": "cell-based", "conditions": "1 mM mefenamic acid", "description": "as §1"}}}
{"smiles": "O=C(O)[C@H]1O[C@@H](Oc2ccc3ccc(=O)oc3c2)[C@H](O)[C@@H](O)[C@@H]1O", "note": "[glucuronide of 7-hydroxycoumarine, 7-hydroxycoumarine glucuronide]", "values": [{"measurement": "production of glucuronide (FIG. 5)", "setting": "UGT1A6; UGT1A6 with At.UDPGDH, 7-hydroxycoumarine substrate, 30° C., 24 hrs", "result": "observed"}, {"measurement": "productivity of glucuronide", "setting": "UGT1A6; optimal conditions, cells expressing UDPGDH and UGT1A6", "result": "200 mg per liter of reaction solution"}, {"measurement": "production of glucuronide (FIG. 5)", "setting": "hUGT1A8; UGT1A8 with At.UDPGDH, 7-hydroxycoumarine substrate, 30° C., 24 hrs", "result": "observed"}, {"measurement": "production of glucuronide (FIG. 5)", "setting": "hUGT1A7", "result": "observed"}, {"measurement": "production of glucuronide (FIG. 5)", "setting": "hUGT1A1 [1]", "result": "observed"}, {"measurement": "production of glucuronide (FIG. 5)", "setting": "hUGT1A9", "result": "observed"}]}
{"smiles": "O=C(O)[C@H]1O[C@H](OP(=O)(O)OP(=O)(O)OC[C@H]2O[C@@H](n3ccc(=O)[nH]c3=O)[C@H](O)[C@@H]2O)[C@H](O)[C@@H](O)[C@@H]1O", "note": "[UDP-glucuronic acid]", "values": [{"measurement": "concentration of endogenous UDP-glucuronic acid in yeast cells", "setting": "[2]", "result": "4 to 5", "unit": "mM"}]}
{"smiles": "COc1c(C)c2c(c(O[C@@H]3O[C@H](C(=O)O)[C@@H](O)[C@H](O)[C@H]3O)c1C/C=C(\\C)CCC(=O)O)C(=O)OC2", "note": "[mycophenolic acid glucuronide]", "values": [{"measurement": "production of glucuronide (FIG. 10)", "setting": "hUGT1A9; 0.2 mM mycophenolic acid, 8% glucose, 30° C., 24 hrs", "result": "confirmed"}]}
{"smiles": "COc1c(C)c2c(c(O[C@@H]3O[C@H](C(=O)O)[C@@H](O)[C@H](O)[C@H]3O)c1C/C=C(\\C)CCC(=O)O)C(=O)OC2", "note": "[mycophenolic-O-glucuronide]", "values": [{"measurement": "site of glucuronidation (FIG. 10)", "setting": "hUGT1A9; 0.2 mM mycophenolic acid, UGT1A9", "result": "preferential production"}]}
{"smiles": "O=c1c(O)c(-c2ccc(O)c(O)c2)oc2cc(O)cc(O)c12", "note": "[Quercetin, quercetin]", "values": [{"measurement": "site of glucuronidation (FIG. 9)", "setting": "hUGT1A1 [3]", "result": "preferential production of querecetin glucuronide at 3′ phenolic hydroxyl group in B ring"}]}
{"smiles": "Cc1cccc(Nc2ccccc2C(=O)O[C@@H]2O[C@H](C(=O)O)[C@@H](O)[C@H](O)[C@H]2O)c1C", "note": "[mefenamic acid acyl glucuronide]", "values": [{"measurement": "acyl glucuronide formation (FIG. 11)", "setting": "hUGT1A8; 1 mM mefenamic acid, UGT1A8", "result": "significant activity"}, {"measurement": "acyl glucuronide formation (FIG. 11)", "setting": "UGT1A10", "result": "significant activity"}]}
{"smiles": "O=c1ccc2ccc(O)cc2o1", "note": "[7OHC, 7-hydroxycoumarine, reference compound]", "values": [{"measurement": "conversion to glucuronide, time course (FIG. 6)", "setting": "UGT1A6; 0.5 mM 7OHC, after 24 hrs", "result": "complete conversion"}, {"measurement": "conversion to glucuronide, glucose dependence (FIG. 7)", "setting": "UGT1A6; at 8% (w/v) glucose", "result": "complete conversion"}]}
